Consider 1 compound from paper PMC10924156, “Design, Preclinical Evaluation, and Clinical Translation of ^68Ga-FAPI-LM3, a Heterobivalent Molecule for PET Imaging of Nasopharyngeal Carcinoma” (Journal of Nuclear Medicine, 2024).

In general, tissue uptake refers to the share of the injected amount in each gram of the tissue.

On the set-up of data set [1]: method as in 2 sources, ref 21 = [21]; PMID 30072500; doi:10.2967/jnumed.118.215913; 21. Giesel FL Kratochwil C Lindner T . 68 Ga-FAPI PET/CT: biodistribution and preliminary dosimetry estimate of 2 DOTA-containing FAP-targeting agents in patients with various cancers . J Nucl Med. 20 ||| ref 15 = [15]; PMID 33579804; doi:10.2967/jnumed.120.253096; 15. Zhu W Cheng Y Jia R . A prospective, randomized, double-blind study to evaluate the safety, biodistribution, and dosimetry of 68 Ga-NODAGA-LM3 and 68 Ga-DOTA-LM3 in patients with well-differentiat. Particulars: in vivo; cited from earlier work.

Data set [2] in a line: Ex vivo biodistribution study. Particulars: BALB/c nude, mouse, tumor (HT-1080-FAP plus HT-1080-SSTR2 xenograft), 1.48 MBq, total radioactivity.
Method: (§1) Tumor-bearing mice (3/group) were intravenously injected with approximately 7.4 MBq of ^68Ga-FAPI-LM3, ^68Ga-FAPI-46, or ^68Ga-DOTA-LM3. Subsequent static PET scans were obtained at intervals of 0.5, 1, 2, and 4 h after injection using an Inveon small-animal PET scanner (Siemens). In the blocking experiment, approximately 60 nmol of the unlabeled precursor (FAPI-46, DOTA-LM3, or FAPI-46 plus DOTA-LM3) were simultaneously injected with ^68Ga-FAPI-LM3. The PET images were reconstructed iteratively using 3-dimensional OpMAP 256 (PET reconstruction protocol [.pPetRcn]; Siemens Healthineers AG) and converted to percentage injected dose per gram of tissue (%ID/g) by delineating the regions of interest. For the biodistribution studies, approximately 1.48 MBq of ^68Ga-FAPI-LM3, ^68Ga-FAPI-46, ^68Ga-DOTA-LM3, or ^68Ga-FAPI-LM3 with unlabeled precursor were injected into tumor-bearing mice (3/group), and different groups of mice were euthanized at the scheduled time points after injection.
A further data set in a line: Small-animal PET imaging. The settings on record: BALB/c nude, mouse, tumor (HT-1080-FAP plus HT-1080-SSTR2 xenograft), iv, 7.4 MBq, total radioactivity, tumor uptake (PET), i.v. approx 7.4 MBq, 3 mice/group.

Structures are written as SMILES. Positions of bridges follow the written chain, without caps; N, C: chain ends. Non-standard residues stand in square brackets, D forms with d. Residues, ends and D or L forms follow the SMILES beside them. *: point of attachment. DOTA = O=C(O)CN1CCN(CC(=O)O)CCN(CC(=O)*)CCN(CC(=O)O)CC1; dPhe(4-NHCONH2) = NC(=O)Nc1ccc(C[C@@H](N)C(=O)O)cc1; Phe(4-Cl) = N[C@@H](Cc1ccc(Cl)cc1)C(=O)O

Method for Small-animal PET imaging: as §1

As to `C[C@@H](O)[C@@H]1NC(=O)[C@H](CCCCN)NC(=O)[C@@H](Cc2ccc(NC(N)=O)cc2)NC(=O)[C@H](Cc2ccc(O)cc2)NC(=O)[C@H](NC(=O)[C@H](Cc2ccc(Cl)cc2)NC(=O)CN2CCN(CC(=O)O)CCN(CC(=O)O)CCN(CC(=O)O)CC2)CSSC[C@@H](C(=O)N[C@H](Cc2ccc(O)cc2)C(N)=O)NC1=O` [^68Ga-DOTA-LM3, metal not drawn, reference compound] ({DOTA}-[Phe(4-Cl)][dC]Y[dPhe(4-NHCONH2)]KTC[dY]-NH2; disulfide 2-7), the effective dose in data set [1] was 2.50 × 10^−2 mSv/MBq. The tissue uptake at 1 h in data set [2] stood at 7.88 ± 1.1 %ID/g; in “Small-animal PET imaging” (1 h after injection) it was 5.93 ± 0.5 %ID/g. For the same compound, the tissue uptake at 4 h in the data set “Small-animal PET imaging” (4 h after injection) was 4.46 ± 0.57 %ID/g.
